Reference: paper PMC4122979, “The N-terminal portion of autoinhibitory element modulates human endothelial nitric-oxide synthase activity through coordinated controls of phosphorylation at Thr^495 and Ser^1177” (Bioscience Reports, 2014)

Experiments:
[1] = test system: human CaM; test: CaM mobility shift gel (CBD peptide binding to CaM); details: 200 pmol CaM; for order of binding affinity for CBD variants to CaM: densitometric analysis of attenuation of free CaM bands (I/I0 versus peptide:CaM ratio), 100 μM CaCl2, pH 7.5, triplicate gels (n=4 in Figure 5 legend); for CaM-peptide complex formation: non-denaturing, non-reducing PAGE (18% gel), peptide 0–2000 pmol, 1 h, 20 mM Tris, pH 7.5, 100 μM CaCl2, Coomassie staining
Description: Human CaM was purified essentially as described previously. CaM (200 pmol) was incubated with each peptide at several molar ratios for 1 h in 10 μl of buffer containing 20 mM Tris, pH 7.5 with 100 μM CaCl2. The sample was subjected to non-denaturing, non-reducing PAGE (18% gel) at 30 mA under high Ca^2+ conditions (100 μM free Ca^2+ in all gel buffers). Binding of peptides to CaM was visualized by Coomassie Brilliant Blue R-250 staining. The relative amount of CaM on the gel at each peptide concentration (I) was determined by densitometry and normalized to CaM in the absence of peptide (I0). The data are plotted as the mean I/I0±S.D. (n=4) versus peptide:CaM ratio.
What needs to be explained is why a similar activation of eNOS is observed with little effect on phosphorylation of Thr^495 in mutant Δ605. Thus, it is difficult at this stage to conclude the precise roles of Thr^495 dephosphorylation in the activation of eNOS. Conflicting conclusions have also been drawn from earlier observations in the role of Thr^495 phosphorylation with eNOS activation. It has been reported that eNOS activity is increased by phosphorylation of Ser^1177 despite enhanced Thr^495 phosphorylation. […] To resolve this discrepancy, we synthesized peptides representing heNOS CBD (residues 491–510) with point mutations at Thr^495 site (Figure 5A) and determined the apparent affinity of the CBD variants to CaM. Each peptide with increasing concentrations (0–2000 pmol) was incubated with purified CaM at a fixed concentration (200 pmol) in the presence of 100 μM CaCl2. The mixtures were electrophoresed on non-reducing, non-denaturing gels. […] Peptide–CaM complexes migrate as higher molecular weight bands than free CaM in the presence of calcium. […] The extent of CaM-peptide interaction was assessed by densitometric analysis of attenuation of free CaM bands in the presence of increasing concentrations of each peptide.
Figure 5 Interaction of synthetic CBD peptides with calcium/CaM (A) Peptide CBD sequences (residues 491–510, based on heNOS) with unmodified T495 (T495), phosphonull A substitution (A495, red colour), phosphomimetic substitution (D495, blue colour) and phosphorylated T495 (pT495, brown colour) are indicated. (B) The synthetic CBD variants were incubated with CaM (200 pmol) by increasing peptide:CaM molar ratios in the presence of 100 μM CaCl2 before electrophoresis. The samples were analysed on 18% non-denaturing gels and visualized with Coomassie Brilliant Blue R-250. Representative Coomassie Brilliant Blue-stained gels of samples containing CaM and increasing molar ratios of T495, A495, D495 and pT495 are shown. The first lane in each gel contains CaM only, i.e., CBD/CaM ratio is 0. The rest CBD/CaM ratios were 0.1:1 (2nd lane), 0.2:1 (3rd lane), 0.4:1 (4th lane), 0.8:1 (5th lane), 1.6:1 (6th lane), 3.2:1 (7th lane), 6.4:1 (8th lane) and 12.8:1 (9th lane). CBD–CaM complexes and free CaM are denoted. (C) The relative amount of CaM on the gel at each peptide concentration (I) was determined by densitometry and normalized to CaM in the absence of peptide (I0). The data are plotted as the mean I/I0±S.D. (n=4) versus peptide:CaM ratio.

[2] = test system: eNOS; test: Inhibition of eNOS oxygenase activity (L-[^3H]citrulline formation) by CBD peptides; format: biochemical, human; details: 10 μM peptide; for order of inhibitory potency to eNOS activity: inter-domain electron transfer (citrulline formation): same order stated for CaM binding affinity; for inhibition of L-citrulline formation: relative to rate without peptide, mean of triplicate experiments
Description: (§1) The expression and purification of eNOS from Sf21 cells was carried out essentially same as previously reported. The inhibition of eNOS oxygenase activity by unmodified or modified CBDs was tested at 37°C for 4 min by measuring L-[^3H]citrulline formation in a mixture containing 25 mM Tris, pH 7.5, 100 mM NaCl, 0.5 μM CaM, 0.2 mM EDTA, 0.3 mM CaCl2, 100 μM β-NADPH, 10 μM H4B, 20 μM L-arginine, 1 μCi of L-[^3H]arginine, 100 nM eNOS, and in the presence or absence of 10 μM of each peptide. Cytochrome c reduction was determined at room temperature (25°C) in a reaction mixture containing 25 mM Tris–HCl, pH 7.5, 100 mM NaCl, 10% glycerol, 50 μM cytochrome c, 0.5 μM CaM, 100 μM CaCl2 and 100 μM β-NADPH in the presence or absence of 10 μM of each peptide. The reaction was initiated by addition of 50 nM eNOS and monitored at 550 nm in a GE geneQuant100 spectrophotometer. Activity was determined using a ΔE550=21 mM^−1cm^−1. An assay in the absence of CaM was carried out to serve as baseline reference.
(§2) Figure 6 Evaluation of inhibitory potency of CBD variants on eNOS activity Modified or unmodified CBD peptides were assessed for their ability to inhibit (A) citrulline formation activity and (B) Cytochrome c reduction. CR denotes a complete reaction mixture; CR-CaM denotes omission of CaM from the complete reaction mixture; CR+T495 indicates the addition of 10 μM of unmodified CBD (T495) to the complete reaction mixture; CR+A495 denotes the addition of 10 μM of phosphonull CBD (A495) to the complete reaction mixture; CR+D495 indicates the addition of 10 μM of phosphomimetic CBD (D495) to the complete reaction mixture; CR+pT495 denotes the addition of 10 μM of phosphorylated CBD (pT495) to the complete reaction mixture. The complete reaction mixture for L-[^3H]citrulline formation contains 25 mM Tris, pH 7.5, 100 mM NaCl, 0.5 μM CaM, 0.2 mM EDTA, 0.3 mM CaCl2, 100 μM β-NADPH, 10 μM H4B, 20 μM L-arginine, 1 μCi of L-[^3H]arginine, 100 nM eNOS. The complete reaction mixture for cytochrome c reduction contains 25 mM Tris–HCl, pH 7.5, 100 mM NaCl, 10% glycerol, 50 μM cytochrome c, 0.5 μM CaM, 100 μM CaCl2 and 100 μM β-NADPH. The catalytic activity was normalized to give percentages relative to the reaction rate in the absence of each peptide. Each bar represents mean±S.D. of triplicate experiments. Under these conditions, the activities for eNOS bound to CaM were 12±2/min for citrulline formation, and 295±15/min for cytochrome c reduction. Data are presented as means±S.D.*denotes P<0.05, ** P<0.01, NS, not significant difference as compared with that in the absence of synthetic CBD peptides. Each experiment was performed in triplicate and repeated three times.

[3] = test system: eNOS; test: Inhibition of eNOS reductase activity (cytochrome c reduction) by CBD peptides; format: biochemical, human; details: 10 μM peptide; for effect on cytochrome c reduction (electron transfer within reductase domain), in words / inhibition of cytochrome c reductase activity: 50 nM eNOS, 0.5 μM CaM, 100 μM CaCl2, 50 μM cytochrome c, 100 μM β-NADPH, pH 7.5, 25°C, 550 nm; for order of inhibitory potency to eNOS activity: intra-domain electron transfer (cytochrome c reduction): same order stated for CaM binding affinity; for inhibition of cytochrome c reductase activity: relative to rate without peptide, mean of triplicate experiments
Description: as §1, §2

[4] = 100 nM eNOS, 0.5 μM CaM, 0.3 mM CaCl2, 20 μM L-arginine, pH 7.5, 37°C, 4 min

Substance	order of binding affinity for CBD variants to CaM [1]	CaM-peptide complex formation [1]	effect on eNOS oxygenase activity (citrulline formation), in words [2, 4]	order of inhibitory potency to eNOS activity: inter-domain electron transfer (citrulline formation) [2]	effect on cytochrome c reduction (electron transfer within reductase domain), in words [3]	order of inhibitory potency to eNOS activity: intra-domain electron transfer (cytochrome c reduction) [3]	inhibition of L-citrulline formation [2, 4]	inhibition of cytochrome c reductase activity [3]
TRKKpT^495FKEVANAVKISASLM [pT495, phosphorylated CBD peptide, heNOS residues 491–510]	T495>A495>D495>pT495	nearly no detectable peptide-CaM complex	did not interfere with eNOS oxygenase activity	T495>A495>D495>pT495	virtually no inhibition on electron transfer within reductase domain	T495>A495>D495>pT495		
TRKKA^495FKEVANAVKISASLM [A495, phospho-null CBD peptide, heNOS residues 491–510]	T495>A495>D495>pT495	also showed CaM-peptide binding		T495>A495>D495>pT495		T495>A495>D495>pT495	70%	90%
TRKKD^495FKEVANAVKISASLM [D495, phosphomimetic CBD peptide, heNOS residues 491–510]	T495>A495>D495>pT495	also showed CaM-peptide binding		T495>A495>D495>pT495		T495>A495>D495>pT495	20%	75%
TRKKT^495FKEVANAVKISASLM [T495, Unmodified CBD peptide, heNOS residues 491–510]	T495>A495>D495>pT495	exhibited increases in CaM–peptide complex bands and reciprocal attenuation of free CaM bands		T495>A495>D495>pT495	inhibits the activity completely	T495>A495>D495>pT495	87%	
